Experimental data taken from patent publication EP2310009B1, “PARENTERAL AND ORAL FORMULATIONS OF BENZIMIDAZOLES” (UNIVERSITY OF HOUSTON, priority 2008, dated 2010).

Assays:
[1] = Mebendazole release from SNEDDS, SEDDS, cosolvent and unformulated suspension; format: physicochemical; details: 60 minutes; unformulated drug in release media with placebo SNEDDS
human plasma protein = details: cited from earlier work

- extent of drug release [1]: 1.10%
SMILES: COC(=O)Nc1nc2ccc(C(=O)c3ccccc3)cc2[nH]1 [MZ, methyl 5-benzoylbenzimidazole-2-carbamate]
- drug bound to human plasma protein (human plasma protein): about 90%
